This test addresses T1, WT/R232 STING protein (Homo sapiens, UniProt Q86WV6, H232R).
T1 construct: host or cells: HEK293T
The test is described as follows: Luciferase reporter assay in HEK293T-hSTING-Luciferase cells, WT/R232. Conditions: 20 hr stimulation, read-out: R232 Activity (EC50 range). Format: cell-based. The essentials:
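Clonal HEK293T cells stably expressing human STING R232 plus an ISRE/ISG54-driven luciferase reporter, 5×10^5 per well, stimulated with compounds for 20 h. Secreted luciferase in supernatant measured by luminescence; […].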
(A reporter such as luciferase makes a cellular process visible.)

This is an account of results in patent publication US20200138827A1, “SMALL MOLECULE MODULATORS OF HUMAN STING” (Curadev Pharma Limited, priority 2017, published 2020).

As usually defined, the EC50 is the concentration giving half of the maximal effect.

Where only a bound is given, the exact number is not on record here.

T1 sequence (Q86WV6 whole entry H232R): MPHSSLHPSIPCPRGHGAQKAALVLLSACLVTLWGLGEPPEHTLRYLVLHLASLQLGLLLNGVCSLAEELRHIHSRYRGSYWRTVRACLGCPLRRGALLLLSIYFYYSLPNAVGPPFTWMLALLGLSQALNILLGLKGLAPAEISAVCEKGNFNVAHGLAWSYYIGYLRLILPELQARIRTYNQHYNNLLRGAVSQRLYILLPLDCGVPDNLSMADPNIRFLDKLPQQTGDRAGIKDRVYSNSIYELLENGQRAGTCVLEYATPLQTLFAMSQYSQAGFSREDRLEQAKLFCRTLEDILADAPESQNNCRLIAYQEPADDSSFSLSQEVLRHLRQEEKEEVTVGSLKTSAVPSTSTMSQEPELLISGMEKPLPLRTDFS

As for `O=C(NCc1ccco1)c1ccc2c(c1)N(Cc1cc(F)ccc1F)C(=O)CS2` [Example 100, 4-(2,5-difluorobenzyl)-N-(furan-2-ylmethyl)-3-oxo-3,4-dihydro-2H-benzo[b-1,4]thiazine-6-carboxamide], the EC50 was in the range of 1 to 10 µM. To `O=C(NCc1ccco1)c1ccc2c(c1)N(Cc1c(F)cccc1F)C(=O)CS2` [Example 101, 4-(2,6-difluorobenzyl)-N-(furan-2-ylmethyl)-3-oxo-3,4-dihydro-2H-benzo[b-1,4]thiazine-6-carboxamide] belongs 1 to 10 µM. For `O=C(NCc1ccco1)c1ccc2c(c1)N(Cc1cc(Cl)cc(C(F)(F)F)c1)C(=O)CS2` [Example 102, 4-(3-chloro-5-(trifluoromethyl)benzyl)-N-(furan-2-ylmethyl)-3-oxo-3,4-dihydro-2H-benzo[b-1,4]thiazine-6-carboxamide], the EC50 lay within 1 to 10 µM.

Turning to `O=C(NCc1ccco1)c1ccc2c(c1)N(CCS(=O)(=O)c1ccccc1)C(=O)CS2` [Example 103, N-(furan-2-ylmethyl)-3-oxo-4-(2-(phenylsulfonyl)ethyl)-3,4-dihydro-2H-benzo[b-1,4]thiazine-6-carboxamide], the EC50 is more than 10 µM. For `O=C(NCc1ccco1)c1ccc2c(c1)N(Cc1cn3ccsc3n1)C(=O)CS2` [Example 104, N-(furan-2-ylmethyl)-4-(imidazo[2,1-b]thiazol-6-ylmethyl)-3-oxo-3,4-dihydro-2H-benzo[b-1,4]thiazine-6-carboxamide], the EC50 is more than 10 µM. To `Cc1nnc(CN2C(=O)CSc3ccc(C(=O)NCc4ccco4)cc32)n1C` [Example 105, 4-((4,5-dimethyl-4H-1,2,4-triazol-3-yl)methyl)-N-(furan-2-ylmethyl)-3-oxo-3,4-dihydro-2H-benzo[b-1,4]thiazine-6-carboxamide] belongs more than 10 µM; to `O=C(NCc1ccco1)c1ccc2c(c1)N(Cc1ccccc1F)C(=O)CS2` [Example 106, 4-(2-fluorobenzyl)-N-(furan-2-ylmethyl)-3-oxo-3,4-dihydro-2H-benzo[b-1,4]thiazine-6-carboxamide], more than 10 µM; to `O=C(NCc1cccs1)c1ccc2c(c1)N(Cc1c(F)cccc1Cl)C(=O)CS2` [Example 107, 4-(2-chloro-6-fluorobenzyl)-3-oxo-N-(thiophen-2-ylmethyl)-3,4-dihydro-2H-benzo[b-1,4]thiazine-6-carboxamide], 1 to 10 µM. To `O=C(NCc1ccccn1)c1ccc2c(c1)N(Cc1c(F)cccc1Cl)C(=O)CS2` [Example 108, 4-(2-chloro-6-fluorobenzyl)-3-oxo-N-(pyridin-2-ylmethyl)-3,4-dihydro-2H-benzo[b-1,4]thiazine-6-carboxamide] belongs more than 10 µM; to `O=C(NCc1cccnc1)c1ccc2c(c1)N(Cc1c(F)cccc1Cl)C(=O)CS2` [Example 109, 4-(2-chloro-6-fluorobenzyl)-3-oxo-N-(pyridin-3-ylmethyl)-3,4-dihydro-2H-benzo[b-1,4]thiazine-6-carboxamide], more than 10 µM. Under `O=C(NC(c1ccccc1)C1CCCCC1)c1ccc2c(c1)N(Cc1ccccc1F)C(=O)CS2` (stereo not shown) [Example 110, N-(cyclohexyl (phenyl)methyl)-4-(2-fluorobenzyl)-3-oxo-3,4-dihydro-2H-benzo[b][1,4] thiazine-6-carboxamide] stands more than 10 µM; under `O=C(NCc1ccco1)c1ccc2c(c1)N(Cc1ccccc1)C(=O)CS2` [Example 111, 4-benzyl-N-(furan-2-ylmethyl)-3-oxo-3,4-dihydro-2H-benzo[b-1,4]thiazine-6-carboxamide], more than 10 µM; under `O=C(NCc1c(F)cc(F)cc1F)c1ccc2c(c1)N(C(C(=O)O)c1ccccc1)C(=O)CS2` (stereo not shown) [Example 113, 2-(3-oxo-6-((2,4,6-trifluorobenzyl)carbamoyl)-2H-benzo[b][1,4]thiazin-4(3H)-yl)-2-phenylacetic acid], more than 10 µM.
